Measurements taken from PubChem BioAssay AID330 (DTP/NCI, 2004).
Values joined by “and” are separate entries in the source; they are usually repeats but may differ in a detail not shown here. Equal values may be shown once. Toxic doses and inconclusive results are not listed.

Tested on: P388 leukemia ip, CD2F1 mice, survival T/C
Assay: NCI In Vivo Anticancer Drug Screen. Data for tumor model P388 Leukemia (intraperitoneal) in CD2F1 (CDF1) mice
Details: endpoint: median survival time, higher = longer survival
Method in brief: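 Mice carrying the transplanted tumor received test compound or vehicle. Survival was recorded in each group, and the value is the treated-group measurement divided by that of the vehicle-treated control group.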

[1] = dose: 50.0 mg/kg/injection, schedule: Q01DX005 (ip), vehicle: saline
[2] = dose: 100.0 mg/kg/injection, schedule: Q01DX005 (ip), vehicle: saline
[3] = dose: 50.0 mg/kg/injection, schedule: Q01DX005 (ip), vehicle: Klucel (hydroxypropylcellulose) (HPC)
[4] = dose: 100.0 mg/kg/injection, schedule: Q01DX005 (ip), vehicle: Klucel (hydroxypropylcellulose) (HPC)
[5] = dose: 200.0 mg/kg/injection, schedule: Q01DX005 (ip), vehicle: Klucel (hydroxypropylcellulose) (HPC)
[6] = dose: 12.5 mg/kg/injection, schedule: Q01DX009 (ip), vehicle: saline with Tween-80
[7] = dose: 12.5 mg/kg/injection, schedule: Q01DX009 (ip), vehicle: saline
[8] = dose: 50.0 mg/kg/injection, schedule: Q01DX009 (ip), vehicle: saline
[9] = dose: 50.0 mg/kg/injection, schedule: Q04DX003 (ip), vehicle: saline with Tween-80
[10] = dose: 50.0 mg/kg/injection, schedule: Q01DX009 (ip), vehicle: saline with Tween-80
[11] = dose: 100.0 mg/kg/injection, schedule: Q01DX009 (ip), vehicle: saline with Tween-80
[12] = dose: 200.0 mg/kg/injection, schedule: Q01DX009 (ip), vehicle: saline with Tween-80
[13] = dose: 100.0 mg/kg/injection, schedule: Q04DX002 (ip), vehicle: saline
[14] = dose: 200.0 mg/kg/injection, schedule: Q04DX002 (ip), vehicle: saline
[15] = dose: 400.0 mg/kg/injection, schedule: Q04DX002 (ip), vehicle: saline
[16] = dose: 25.0 mg/kg/injection, schedule: Q04DX002 (ip), vehicle: saline
[17] = dose: 50.0 mg/kg/injection, schedule: Q01DX005 (ip), vehicle: saline with Tween-80
[18] = dose: 100.0 mg/kg/injection, schedule: Q01DX005 (ip), vehicle: saline with Tween-80
[19] = dose: 200.0 mg/kg/injection, schedule: Q01DX005 (ip), vehicle: saline with Tween-80
[20] = dose: 50.0 mg/kg/injection, schedule: Q01DX009 (ip), vehicle: Klucel (hydroxypropylcellulose) (HPC)
[21] = dose: 100.0 mg/kg/injection, schedule: Q01DX009 (ip), vehicle: Klucel (hydroxypropylcellulose) (HPC)
[22] = dose: 200.0 mg/kg/injection, schedule: Q01DX009 (ip), vehicle: Klucel (hydroxypropylcellulose) (HPC)

For CCN(CC)C(=O)C(F)Cl (stereo unspecified), the T/C (dose: 60.0 mg/kg/injection, schedule: Q01DX005 (ip), vehicle: saline with Tween-80) was 88 % of control, the T/C (dose: 120.0 mg/kg/injection, schedule: Q01DX005 (ip), vehicle: saline with Tween-80) was 88 % of control and the T/C (dose: 240.0 mg/kg/injection, schedule: Q01DX005 (ip), vehicle: saline with Tween-80) was 95 % of control.

For CC(C)C/C=N\N=C(N)N, the T/C [1] was 100 % of control and the T/C [2] was 100 % of control.

For O=C1C=C2CCCCCCCCCC(C1)C2 (stereo unspecified), the T/C [3] was 99 % of control, the T/C [4] was 99 % of control and the T/C [5] was 89 % of control.

With O=[N+]([O-])c1cnc(Sc2ccncn2)c([N+](=O)[O-])c1 the T/C (dose: 3.12 mg/kg/injection, schedule: Q01DX009 (ip), vehicle: saline with Tween-80) was 105 % of control, the T/C (dose: 6.25 mg/kg/injection, schedule: Q01DX009 (ip), vehicle: saline with Tween-80) was 98 % of control and the T/C [6] was 102 % of control. The T/C [7] was 100 % of control, the T/C (dose: 25.0 mg/kg/injection, schedule: Q01DX009 (ip), vehicle: saline) was 89 % of control and the T/C [8] was 99 % of control.

With CN(C)c1ccc(N=Nc2ccc3cc4ccccc4cc3c2)cc1 the T/C (dose: 25.0 mg/kg/injection, schedule: Q04DX003 (ip), vehicle: saline with Tween-80) was 101 % of control and the T/C [9] was 105 % of control.

For NNC(=O)c1ccc(N)cc1, the T/C [10] was 100 % of control, the T/C [9] was 104 % of control and the T/C [11] was 100 % of control. The T/C (dose: 100.0 mg/kg/injection, schedule: Q04DX003 (ip), vehicle: saline with Tween-80) was 104 % of control and the T/C [12] was 100 % of control.

For Clc1ccc(Cl)nn1, the T/C [10] was 97 % of control, the T/C [11] was 100 % of control and the T/C [12] was 100 % of control.

In the case of COc1ccc(CS(=O)(=O)c2cnc(=O)[nH]c2N)cc1OC, the T/C [13] was 93 % of control, the T/C [14] was 101 % of control and the T/C [15] was 93 % of control.

With CC(=O)/C=C(\c1ccccc1)c1c(O)c2ccccc2oc1=O the T/C [10] was 89 % of control, the T/C [11] was 99 % of control and the T/C [12] was 114 % of control.

For CC(C)C1CCC2(C)OC2C1=O (stereo unspecified), the T/C [16] was 100 % of control, the T/C (dose: 50.0 mg/kg/injection, schedule: Q04DX002 (ip), vehicle: saline) was 98 % of control and the T/C [13] was 100 % of control and 101 % of control. For the same molecule, the T/C [14] was 100 % of control and the T/C [15] was 112 % of control.

With CC1=C(O[Si](C)(C)C)CCC1=O the T/C [17] was 113 % of control, the T/C [18] was 105 % of control and the T/C [19] was 106 % of control.

With O=C1c2c(O)cccc2-c2nn(CCNCCO)c3ccc(NCCNCCO)c1c23 the T/C (dose: 3.12 mg/kg/injection, schedule: Q04DX002 (ip), vehicle: water) was 171 % of control, the T/C (dose: 6.25 mg/kg/injection, schedule: Q04DX002 (ip), vehicle: water) was 183 % of control and the T/C (dose: 12.5 mg/kg/injection, schedule: Q04DX002 (ip), vehicle: water) was 228 % of control and 235 % of control. The T/C (dose: 25.0 mg/kg/injection, schedule: Q04DX002 (ip), vehicle: water) was 184 % of control and 285 % of control and 588 % of control, the T/C (dose: 50.0 mg/kg/injection, schedule: Q04DX002 (ip), vehicle: water) was 88 % of control and the T/C (dose: 100.0 mg/kg/injection, schedule: Q04DX002 (ip), vehicle: water) was 190 % of control.

In the case of Cc1ccc(S(=O)(=O)[n+]2ccccc2)cc1, the T/C (dose: 100.0 mg/kg/injection, schedule: Q01DX001 (ip), vehicle: saline) was 104 % of control, the T/C (dose: 200.0 mg/kg/injection, schedule: Q01DX001 (ip), vehicle: saline) was 100 % of control and the T/C (dose: 400.0 mg/kg/injection, schedule: Q01DX001 (ip), vehicle: saline) was 100 % of control.

With O=C(OC1C(O)OC2COC(=O)c3cc(O)c(O)c(O)c3-c3c(cc(O)c(O)c3O)C(=O)OC2C1O)c1cc(O)c(O)c(O)c1 (stereo unspecified) the T/C (dose: 3.75 mg/kg/injection, schedule: Q01DX009 (ip), vehicle: saline with Tween-80) was 97 % of control, the T/C (dose: 7.5 mg/kg/injection, schedule: Q01DX009 (ip), vehicle: saline with Tween-80) was 102 % of control and the T/C (dose: 15.0 mg/kg/injection, schedule: Q01DX009 (ip), vehicle: saline with Tween-80) was 103 % of control.

CN(C)CCNC1=C(Cl)C(=O)c2ccccc2C1=O was tested, and the T/C (dose: 3.13 mg/kg/injection, schedule: Q01DX009 (ip), vehicle: saline) was 95 % of control, the T/C (dose: 6.25 mg/kg/injection, schedule: Q01DX009 (ip), vehicle: saline) was 94 % of control and the T/C [7] was 97 % of control.

With [CH3][Sn]([CH3])([Cl])[CH2]CC[CH2][Ge]([Cl])([Cl])[Cl] the T/C (dose: 0.78 mg/kg/injection, schedule: Q01DX009 (ip), vehicle: saline) was 114 % of control and the T/C (dose: 1.56 mg/kg/injection, schedule: Q01DX009 (ip), vehicle: saline) was 119 % of control.

For O=[Se](=O)(O)O, the T/C (dose: 1.88 mg/kg/injection, schedule: Q01DX005 (ip), vehicle: saline) was 103 % of control, the T/C (dose: 3.75 mg/kg/injection, schedule: Q01DX005 (ip), vehicle: saline) was 109 % of control and 99 % of control and the T/C (dose: 7.5 mg/kg/injection, schedule: Q01DX005 (ip), vehicle: saline) was 113 % of control and 101 % of control. The T/C (dose: 15.0 mg/kg/injection, schedule: Q01DX005 (ip), vehicle: saline) was 86 % of control and 98 % of control.

With O=C(CCN1CC1)Nc1ccc(NC(=O)CCN2CC2)cc1 the T/C (dose: 10.0 mg/kg/injection, schedule: Q04DX003 (ip), vehicle: Klucel (hydroxypropylcellulose) (HPC)) was 198 % of control and the T/C (dose: 20.0 mg/kg/injection, schedule: Q04DX003 (ip), vehicle: Klucel (hydroxypropylcellulose) (HPC)) was 227 % of control.

In the case of O=P(c1ccccc1)(c1ccccc1)c1ccccc1.O=P(c1ccccc1)(c1ccccc1)c1ccccc1.O=P(c1ccccc1)(c1ccccc1)c1ccccc1.O=P(c1ccccc1)(c1ccccc1)c1ccccc1.[Ni+2].[O-][Cl+3]([O-])([O-])O, the T/C [6] was 96 % of control, the T/C (dose: 25.0 mg/kg/injection, schedule: Q01DX009 (ip), vehicle: saline with Tween-80) was 101 % of control and the T/C [10] was 90 % of control and 95 % of control.

In the case of CCCNC(c1ccc(N(CC)CC)cc1)C(Cl)(Cl)Cl (stereo unspecified), the T/C [1] was 103 % of control, the T/C [2] was 106 % of control and the T/C (dose: 200.0 mg/kg/injection, schedule: Q01DX005 (ip), vehicle: saline) was 96 % of control.

For CCCCN(CCCC)CC(O)c1cc2ccccc2c2cc(Br)ccc12 (stereo unspecified), the T/C [17] was 100 % of control, the T/C [18] was 102 % of control and the T/C [19] was 100 % of control.

In the case of CC(=O)n1nc(C)c(-c2onc3ccc(Cl)cc23)c1C, the T/C [20] was 104 % of control, the T/C [21] was 101 % of control and the T/C [22] was 90 % of control.

In the case of CC(C)(C)NC(Cc1ccccc1)=NC1CCCCC1, the T/C (dose: 12.5 mg/kg/injection, schedule: Q04DX002 (ip), vehicle: saline) was 103 % of control and the T/C [16] was 101 % of control.

With Cn1c(N)c(-n2[nH]c(=O)n(-c3ccccc3)c2=O)c(=O)n(C)c1=O the T/C [20] was 106 % of control, the T/C [21] was 95 % of control and the T/C [22] was 98 % of control.

CN1CCN(CC2CCOc3cc(Cl)ccc3C2=O)CC1 (stereo unspecified) was tested, and the T/C (dose: 100.0 mg/kg/injection, schedule: Q04DX003 (ip), vehicle: saline) was 105 % of control and the T/C (dose: 200.0 mg/kg/injection, schedule: Q04DX003 (ip), vehicle: saline) was 108 % of control.

For CC(C)N(C(C)C)P1(=S)N(C(C)(C)C)N=NN1C(C)(C)C, the T/C [3] was 91 % of control, the T/C [4] was 101 % of control and the T/C [5] was 91 % of control.

With CCC(=O)Nc1ccc(C(=O)NCCN(CC)CC)cc1 the T/C [3] was 105 % of control, the T/C [4] was 104 % of control and the T/C [5] was 100 % of control.

With CCCCCCCC[N+]1([O-])CCCCC1 the T/C [8] was 97 % of control and the T/C (dose: 100.0 mg/kg/injection, schedule: Q01DX009 (ip), vehicle: saline) was 102 % of control.

With CN=C(N)NN=C(c1ccc(Cl)cc1)c1ccc(Cl)cc1 the T/C (dose: 6.25 mg/kg/injection, schedule: Q04DX002 (ip), vehicle: saline with Tween-80) was 101 % of control, the T/C (dose: 12.5 mg/kg/injection, schedule: Q04DX002 (ip), vehicle: saline with Tween-80) was 102 % of control and the T/C (dose: 25.0 mg/kg/injection, schedule: Q04DX002 (ip), vehicle: saline with Tween-80) was 158 % of control.
